The target in the assay is purified human farnesyl protein transferase (Homo sapiens, UniProt P49354+P49356). In words: (H-Ras) Farnesyl Transferase Inhibition assay. In kind it is biochemical. The conditions noted are these: transfer of [3H] farnesyl from [3H] farnesyl pyrophosphate to biotin-CVLS peptide; 37° C., 60 minutes; SPA beads. The method, then: Assay Conditions for (H-Ras) FPT
FPT activity was determined by measuring the transfer of [^3H] farnesyl from [^3H] farnesyl pyrophosphate to a biotinylated peptide derived from the C-terminus of H-Ras (biotin-CVLS). […] The reaction mixture was incubated in a Vortemp shaking incubator at 37° C., 45 RPM for 60 minutes and stopped with 150 μL of 0.25 M EDTA containing 0.5% BSA and 1.3 mg/ml Streptavidin SPA beads. […] Percent inhibition was calculated relative to the vehicle control.

pIC50: −log10 of the molar value.

The term pIC50 denotes −log10 of the IC50, conventionally taken in molar units. Lower therefore signals a high IC50. In turn, `NC(=O)N1CC=C(CC(=O)N2CCC([C@H]3c4ncc(Br)cc4CCc4cc(Cl)cc(Br)c43)CC2)CC1` [Compound 8, (+)-4-[2-[4-(3,10-dibromo-8-chloro-6,11-dihydro-5H-benzo[5,6]cyclohepta[1,2-b]pyridin-11(R)-yl)-1-piperidinyl]-2-oxoethyl]-3,4-didehydro-1-piperidine-carboxamide] had a pIC50 of 8.59. Consider `NC(=O)N1CCC(=CC(=O)N2CCC([C@H]3c4ncc(Br)cc4CCc4cc(Cl)cc(Br)c43)CC2)CC1` [Compound 9, (+)-4-[2-[4-(3,10-Dibromo-8-chloro-6,11-dihydro-5H-benzo[5,6]cyclohepta[1,2-b]pyridin-11(R)-yl)-1-piperidinyl]-2-oxoethylidene]-1-piperidinecarboxamide], for which the pIC50 is 7.63.

The record behind these values is US7271174B2, “Metabolites of tricyclic amides useful for inhibition of G-protein function and methods of treatment of proliferative diseases” (Schering Corporation, priority 2003, dated 2007).
